# From patent US20140357512A1, “HISTONE DEACETYLASE (HDAC) BIOMARKERS IN MULTIPLE MYELOMA” (priority 2013, published 2014)
# Tested on: human myeloma cell line MM.1S
# Test: SILAC acetylated-lysine peptide profiling, HDAC inhibitor vs DMSO (light/heavy ratio)
# Format: cell-based
# Text: An embodiment of the invention comprises utilizing the SILAC method in order to quantitate changes in protein expression between two or more populations of cells. The SILAC method is a technique based on mass spectrometry that detects differences in protein abundance among samples using non-radioactive isotopic labeling. The SILAC method is known in the art, and described in detail in Ong et al., “Stable Isotope Labeling by Amino Acids in Cell Culture, SILAC, as a Simple and Accurate Approach to Expression Proteomics”, Molecular & Cellular Proteomics, vol. 1, pp. 376-386 (2002), which is incorporated herein by reference in its entirety.
# Briefly, the SILAC method involves growing two populations of cells in cell culture. The first population of cells is grown in growth media containing normal amino acids (“normal media”). The second population of cells is grown in media lacking a standard essential amino acid (such as lysine), but is then supplemented with a non-radioactive, isotopically labeled form of that essential amino acid (such as lysine labeled with ^13C atoms, rather than normal ^12C atoms), which is called “heavy media”. When the two populations of cells are each growing in the medium, they incorporate the amino acids into all of their proteins. The growth of cells maintained in the heavy media is no different from that in normal media. All peptides containing the heavy amino acids are heavier than their normal counterparts. The cells from each of the two populations of cells are lysed. The lysates from each of the two cell populations are then combined. The combined cell lysates are then analyzed by mass spectrometry. Pairs of chemically identical peptides of different stable isotope composition can be differentiated in a mass spectrometer due to their difference in mass. The ratio of peak intensities in the mass spectrum for such peptide pairs reflects the abundance ratio for the two proteins.
# This example describes SILAC studies that were performed to compare the effects of three different HDAC inhibitors (Compound A, Compound B, and tubastatin A) to a control on a human multiple myeloma cell line. The HDAC inhibitors were also compared amongst themselves to determine differences in their effects.
# A human myeloma cell line MM.1S was grown using either ^12C (light) or ^13C (heavy) lysine containing culture medium. The “heavy” cells were treated with DMSO as the control, and the “light” cells were treated with a single HDAC inhibitor at 37° C. for 6 hours. The heavy and light cells were lysed, and the lysates were mixed in 1:1 ratio and digested with the protease trypsin. The acetylated lysine containing peptides (due to the action of the HDAC inhibitor) in the digested peptide pool were captured by a non-specific anti-acetylated lysine antibody cocktail (the antibodies identify both light and heavy acetylated peptides), and subjected to mass spectrometry analysis in order to identify thousands of individual peptides.
# Thousands of peptides were identified in pairs (^12C and ^13C) due to their known mass differences. The amino acid sequence and quantitative ratio (Light/Heavy) of a given peptide in two differentially treated cell lysates were then determined and annotated with their possible protein (gene) sources.
# As stated above, three HDAC inhibitors (Compound A, Compound B, and Tubastatin A) were used. Thus, the SILAC method was performed three times, with a different HDAC inhibitor compared to a control each time. Accordingly, there are three pairs of quantitative data in the table below, i.e., Compound A:DMSO, Compound B:DMSO, and Tubastatin A:DMSO. A cut-off of 1.30 fold of change (increase or decrease) was then used to determine “changed” or “+” in the table, and any peptides with a fold of change less than 1.3 fold were determined to be “unchanged” or “0” in the table. Those peptides that were not identified were marked as “NA” in the table. […]
smiles,measurement,setting,value
"O=C(CCCCCCNC(=O)c1cnc(N(c2ccccc2)c2ccccc2)nc1)NO [Compound A, 2-(diphenylamino)-N-(7-(hydroxyamino)-7-oxoheptyl)pyrimidine-5-carboxamide]","light to heavy ratio (L/H ratio), log 2 scale, acetylated peptide VGDK(ac)[…] (SEQ ID NO: 773)","10 kDa heat shock protein mitochondrial [70], gene HSPE1, drug:DMSO",1.00
same,light to heavy ratio (L/H ratio) of acetylated peptide AGEATVK(ac)FLK (SEQ ID NO: 580),"39S ribosomal protein L9 mitochondrial [165], gene MRPL9, inhibitor:DMSO",0.43 log 2
same,light to heavy ratio (L/H ratio) of acetylated peptide IQEVLK(ac)HAR (SEQ ID NO: 264),"39S ribosomal protein L20 mitochondrial [26], MRPL20, drug:DMSO",0.43 log 2
same,light to heavy ratio (L/H ratio) of acetylated peptide YIGK(ac)TMDYR (SEQ ID NO: 535),"39S ribosomal protein L24 mitochondrial [100], gene MRPL24, inhibitor:DMSO",−0.39 log 2
same,light to heavy ratio (L/H ratio) of acetylated peptide FQK(ac)ELER (SEQ ID NO: 618),"39S ribosomal protein L44 mitochondrial [43], gene MRPL44, inhibitor:DMSO",0.48 log 2
same,light to heavy ratio (L/H ratio) of acetylated peptide FK(ac)LITEDVQGK (SEQ ID NO: 287),"40S ribosomal protein S3a [85], SNORD73A, RPS3A, drug:DMSO",0.62 log 2
same,light to heavy ratio (L/H ratio) of acetylated peptide KDVHMPK(ac)HPELADK (SEQ ID NO: 353),"40S ribosomal protein S10 [31], RPS10, drug:DMSO",0.00 log 2
same,"light to heavy ratio (L/H ratio), log 2 scale, acetylated peptide K(ac)FGGPGAR (SEQ ID NO: 768)","40S ribosomal protein S16 [131], gene RPS16, drug:DMSO",0.97
same,light to heavy ratio (L/H ratio) of acetylated peptide NK(ac)[…] (SEQ ID NO: 559),"40S ribosomal protein S17 [49], gene RPS17, RPS17L, inhibitor:DMSO",0.40 log 2
same,light to heavy ratio (L/H ratio) of acetylated peptide ADGIVSK(ac)NF (SEQ ID NO: 599),"40S ribosomal protein S21 [81], gene RPS21, inhibitor:DMSO",0.46 log 2
same,light to heavy ratio (L/H ratio) of acetylated peptide GIVLEK(ac)VGVEAK (SEQ ID NO: 320),"40S ribosomal protein S23 [54], RPS23, drug:DMSO",1.00 log 2
same,"light to heavy ratio (L/H ratio), log 2 scale, acetylated peptide K(ac)FGQGSR (SEQ ID NO: 809)","40S ribosomal protein S29 [13], gene RPS29, drug:DMSO",1.00
same,"light to heavy ratio (L/H ratio), log 2 scale, acetylated peptide ATWK(ac)SNYFLK (SEQ ID NO: 760)","60S acidic ribosomal protein P0 [10], gene RPLP0, drug:DMSO",0.91
same,"light to heavy ratio (L/H ratio), log 2 scale, acetylated peptide ALEK(ac)IDLK (SEQ ID NO: 813)","60S ribosomal protein L3 [362], gene SNORD43, RPL3, drug:DMSO",1.00
same,light to heavy ratio (L/H ratio) of acetylated peptide IPK(ac)HLTDAYFK (SEQ ID NO: 259),"60S ribosomal protein L6 [211], RPL6, drug:DMSO",0.40 log 2
same,"light to heavy ratio (L/H ratio), log 2 scale, acetylated peptide AVDSQILPK(ac)IK (SEQ ID NO: 761)","60S ribosomal protein L6 [261], gene RPL6, drug:DMSO",0.92
same,light to heavy ratio (L/H ratio) of acetylated peptide HGYIK(ac)GIVK (SEQ ID NO: 556),"60S ribosomal protein L8 [42], gene RPL8, inhibitor:DMSO",0.40 log 2
same,light to heavy ratio (L/H ratio) of acetylated peptide IDK(ac)PILK (SEQ ID NO: 506),"60S ribosomal protein L8 [177], gene RPL8, inhibitor:DMSO",−0.65 log 2
same,light to heavy ratio (L/H ratio) of acetylated peptide GPLDK(ac)WR (SEQ ID NO: 622),"60S ribosomal protein L10-like [208], gene RPL10L, inhibitor:DMSO",0.48 log 2
same,"light to heavy ratio (L/H ratio), log 2 scale, acetylated peptide YMVK(ac)SCGK (SEQ ID NO: 811)","60S ribosomal protein L10 [78], gene SNORA70, RPL10, drug:DMSO",1.00
same,"light to heavy ratio (L/H ratio), log 2 scale, acetylated peptide VDEVK(ac)STIK (SEQ ID NO: 805)","60S ribosomal protein L10a [152], gene RPL10A, drug:DMSO",1.00
same,light to heavy ratio (L/H ratio) of acetylated peptide VITEEEK(ac)NFK (SEQ ID NO: 522),"60S ribosomal protein L13 [174], gene RPL13, inhibitor:DMSO",−0.46 log 2
same,light to heavy ratio (L/H ratio) of acetylated peptide LAAIVAK(ac)QVLLGR (SEQ ID NO: 505),"60S ribosomal protein L13a [25], gene SNORD32A, RPL13A, SNORD33, SNORD34, inhibitor:DMSO",−0.67 log 2
same,light to heavy ratio (L/H ratio) of acetylated peptide K(ac)FAYLGR (SEQ ID NO: 614),"60S ribosomal protein L13a [134], gene SNORD32A, RPL13A, SNORD33, SNORD34, inhibitor:DMSO",0.47 log 2
same,"light to heavy ratio (L/H ratio), log 2 scale, acetylated peptide LAHEVGWK(ac)[…] (SEQ ID NO: 812)","60S ribosomal protein L13a [148], gene SNORD32A, RPL13A, SNORD33, SNORD34, drug:DMSO",1.00
same,light to heavy ratio (L/H ratio) of acetylated peptide […](ac)PVHK (SEQ ID NO: 581),"60S ribosomal protein L15 [153], gene RPL15, inhibitor:DMSO",0.43 log 2
same,light to heavy ratio (L/H ratio) of acetylated peptide GHK(ac)FHHTIGGSR (SEQ ID NO: 519),"60S ribosomal protein L15 [179], gene RPL15, inhibitor:DMSO",−0.51 log 2
same,"light to heavy ratio (L/H ratio), log 2 scale, acetylated peptide SFVK(ac)[…] (SEQ ID NO: 770)","60S ribosomal protein L27 [73], gene RPL27, drug:DMSO",0.99
same,"light to heavy ratio (L/H ratio), log 2 scale, acetylated peptide YSVDIPLDK(ac)TVVNK (SEQ ID NO: 807)","60S ribosomal protein L27 [93], gene RPL27, drug:DMSO",1.00
same,"light to heavy ratio (L/H ratio), log 2 scale, acetylated peptide TVVNK(ac)DVFR (SEQ ID NO: 766)","60S ribosomal protein L27 [98], gene RPL27, drug:DMSO",0.94
same,light to heavy ratio (L/H ratio) of acetylated peptide NCSSFLIK(ac)R (SEQ ID NO: 558),"60S ribosomal protein L28 [19], gene RPL28, inhibitor:DMSO",0.40 log 2
same,light to heavy ratio (L/H ratio) of acetylated peptide IHGVGFK(ac)K (SEQ ID NO: 542),"60S ribosomal protein L31 [39], gene RPL31, inhibitor:DMSO",0.39 log 2
same,"light to heavy ratio (L/H ratio), log 2 scale, acetylated peptide LNK(ac)AVWAK (SEQ ID NO: 808)","60S ribosomal protein L31 [70], gene RPL31, drug:DMSO",1.00
same,light to heavy ratio (L/H ratio) of acetylated peptide […](ac)ENLR (SEQ ID NO: 610),"60S ribosomal protein L35 [66], gene RPL35, inhibitor:DMSO",0.47 log 2
same,light to heavy ratio (L/H ratio) of acetylated peptide LWSK(ac)AIFAGYK (SEQ ID NO: 538),"60S ribosomal protein L35a [8], gene RPL35A, inhibitor:DMSO",0.38 log 2
